Reference: US8829028B2, “5-HT4 receptor antagonists for the treatment of heart failure” (Serodus AS, priority 2002, dated 2014)
“And” between values parts separate entries of the source, which are not always exact repeats. Identical values can stand only once. Counter-ions that a name gives are not always drawn. One block for each compound: values may come before it.

Key:
[1] = system: papillary muscles from Chronic heart failure rats; assay: Inotropic and lusitropic response of isolated papillary muscles from post-MI Chronic heart failure rats (organ bath, 1 Hz); type: cell-based, rat; conditions: for RT (TR20−TPF), relaxation time / TPF (time to peak force) / TR20 (time to relaxation to 20% level): CHF, serotonin 10 μmol/l, then isoprenaline 100 μmol/l
Protocol: (§1) Male, Wistar rats (Mollegaard Breeding and Research Centre, Skensved, Denmark), weighing about 320 g were intubated and ventilated with 68% N2O, 29% O2 and 2-3% Isofluran (Abbot Laboratories, USA). An extensive myocardial infarction (MI) was induced by a proximal ligation of the left coronary artery. Six weeks later the rats were anaesthetized and ventilated on the respirator with 2.2% Isofluran. Left ventricular pressures were measured (Sjaastad et al., 2000, J. Appl. Physiol, 89: 1445-1454), and Chronic heart failure rats were included in the study if left ventricular end diastolic pressure (LVEDP) was >15 mm Hg. […] The sham-operated animals (SHAM) were subjected to the same surgical procedure but the coronary artery was not ligated.
(§2) Hearts were isolated from the anaesthetized animals (see above) and carefully dissected free of connective tissue and transferred to ice cold 0.9% NaCl and weighed. The aorta was cannulated, and the coronaries were perfused at 31° C. with a relaxing solution containing: (mmol/l) NaCl 118.3; KCl 3.0; CaCl2 0.5; MgSO4 4.0; KH2PO4 2.4; NaHCO3 24.9; glucose 10.0; mannitol 2.2 and equilibrated with 95% O2/5% CO2 at 31° C. (pH 7.4). Posterior left ventricular papillary muscle was ligated
(§3) The muscles were transported to a separate laboratory and mounted in organ baths. […] The papillary muscles were mounted in organ baths containing the relaxing solution and allowed to adapt at 31° C. for about 20 minutes before the solution was changed to one containing the following (in mmol/l): NaCl 119.2; KCJ 3.0; CaCl2 2.0; MgSO4 1.2; KH2PO4 2.4; NaHCO3 24.9; glucose 10.0; mannitol 2.22 and equilibrated with 95% O2/5% CO2 at 31° C. (pH 7.4).
(§4) The muscles were field stimulated with alternating polarity at 1 Hz with impulses of 5 msec duration and current about 20% above individual threshold (10-15 mA, determined in each experiment). The isometrically contracting muscles were stretched to the maximum of their length-tension curve. The force was recorded and analysed as previously described (Skomedal et al., 1997, J. Pharmacol. Exp. Ther. 280: 721-729). The muscles were allowed to equilibrate for 90 minutes. […] Averaged contraction-relaxation cycles (CRC) were calculated for different experimental periods, and these cycles were used to determine descriptive parameters like maximal development of force (dF/dt)max, time to peak force (TPF) and time to relaxation to 20% level (TR2O). Relaxation time (RT) was calculated as TR2O-TPF. (dF/dt)max was used as an index of contractility. Inotropic responses induced by agonists were expressed by increase in (dF/dt)max. RT was used as index of relaxation. Lusitropic responses were expressed as reduction in RT. Mechanical response at the end of the equilibrium period was used as the control response.
(§5) Agonist was added cumulatively or as a single bolus directly to the organ baths and was completely mixed in the solution within 2-3 seconds. […] The different agonists were added directly to the organ baths in increasing concentrations until supramaximal concentrations of agonist were obtained with respect to maximal inotropic response.
(§6) The responses for each concentration of agonist were generally calculated as percent of maximal response. The concentration-response curves constructed from papillary muscle experiment were constructed according to Ariens and Simonis (1964, supra), by estimating centiles (EC10 to EC100) for each single experiment and calculating the corresponding means. This calculation provides mean curves that express the response as fractional response or percent of maximum and display horizontal positioning and the correct mean slope of the curves. The horizontal positioning of the concentration-response curves was expressed as pEC50-values (=−log EC50).

[2] = system: 5-HT2A receptor (Rattus norvegicus); conditions: ketanserin 0.1 μmol/l
Sequence of 5-HT2A receptor (Rattus norvegicus) (Q62758 whole entry): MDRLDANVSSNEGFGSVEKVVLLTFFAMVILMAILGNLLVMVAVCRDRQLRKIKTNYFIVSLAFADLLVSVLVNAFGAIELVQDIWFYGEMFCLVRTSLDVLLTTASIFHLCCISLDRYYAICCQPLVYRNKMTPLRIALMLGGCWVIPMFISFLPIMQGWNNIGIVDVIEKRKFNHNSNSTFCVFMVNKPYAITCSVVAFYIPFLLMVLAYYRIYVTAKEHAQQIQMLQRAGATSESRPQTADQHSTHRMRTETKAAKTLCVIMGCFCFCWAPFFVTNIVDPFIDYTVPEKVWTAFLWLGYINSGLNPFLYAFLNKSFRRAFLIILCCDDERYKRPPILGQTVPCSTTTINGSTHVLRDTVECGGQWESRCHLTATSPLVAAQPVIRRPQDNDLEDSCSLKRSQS
Protocol: as §4, with “RT was used as index of relaxation.” left out, “Mechanical response at the end of the equilibrium period was used as the control response.” left out
The responses for each concentration of agonist were generally calculated as percent of maximal response. […] The horizontal positioning of the concentration-response curves was expressed as pEC50-values (=−log EC50). Data are expressed as mean±standard error of the mean (SEM) and the number of animals expressed as n. The significance levels of differences were calculated according to Students t-test. […]

5-HT4 receptor [3] = target: T1, 5-HT4 receptor (Rattus norvegicus, UniProt Q62758); assay: Antagonism of the serotonin inotropic response by 5-HT4 antagonists in post-MI rat papillary muscle (reversal, curve shift, Schild Kb); type: cell-based; conditions: for block of the inotropic response to serotonin: each antagonist added as printed
T1 construct: The papillary muscles were mounted in organ baths; from tissue; host or cells: rat posterior left ventricular papillary muscle (post-MI or aortic-banding heart failure)
T1 sequence (Q62758 whole entry): as above
Protocol: as §4, §5
as §6, with “EC50). Data are expressed as mean±standard error of the mean (SEM) and the number of animals expressed as n. The significance levels of differences were calculated according to Students t-test. P<0.05 is considered statistically significant. The inhibition constants Kb were calculated from the Schild equation, based on the relative shifts of the concentration-response curves for receptor stimulation.” for “EC50).”

[4] = system: post-infarction congestive heart failure (CHF) rats; assay: Six-week treatment of post-infarction CHF rats with a 5-HT4 antagonist, papillary muscle function afterwards; type: in vivo, rat; conditions: 50 mM SB207266 in s.c. miniosmotic pumps, six weeks
Source text: An extensive myocardial infarction (MI) was induced in 320 g male Wistar rats under anaesthesia (68% N2O, 29% O2 and 2-3% Isofluran) by a proximal ligation of the left coronary artery (Sjaastad et al. 2003, supra). Three days later, rats were included in the study if the rats had both clinical signs of congestive heart failure (tachypnoe and forced ventilation) and a large myocardial infarction as verified by echocardiography. Rats included in the study were randomized blindly to placebo or treatment. […]
After six weeks of treatment, the animals were again placed under Isofluran anaesthesia (68% N2O, 29% O2 and 2-3% Isofluran) with temperature control for echocardiographic and hemodynamic measurements, followed by euthanasia. Posterior left ventricular papillary muscles were then prepared, mounted in organ baths, equilibrated and field stimulated at 1 Hz (Sjaastad et al., 2003 supra) and the contraction-relaxation cycles (CRCs) were recorded and analysed as previously described with respect to maximal developed force (Fmax), maximal development of force (dF/dt)max, time to peak force (TPF), time to relaxation to 20% level (TR20) and relaxation time (RT=TR20-TPF). […]

[5] = system: papillary muscles from sham-operated rats; assay: Inotropic and lusitropic response of isolated papillary muscles from sham-operated rats; type: cell-based, rat; conditions: for RT (TR20−TPF), relaxation time / TPF (time to peak force) / TR20 (time to relaxation to 20% level): Sham, N=6, serotonin 10 μmol/l, then isoprenaline 100 μmol/l
Protocol: as §1, §2, §3, §4, §5, §6

5-HT4 receptor [6] = target: T1, 5-HT4 receptor; assay: 5-HT4 receptor-mediated inotropic response in papillary muscle of CHF rat 6 weeks after aortic banding; type: cell-based; conditions: serotonin 10 μM; prazosin, timolol, atropine 1 μM each
Protocol: Trans-aortic constriction (aortic banding) of the ascending aorta was induced in 200 g male Wistar rats under anaesthesia, induced by 63% N2O, 32% O2 and 5% Isoflurane and maintained by 66% N2O, 33% O2 and 1-2% Isoflurane. A right-sided thoracotomi was performed through a 3-4 cm long cutaneous incision, the pericardium was opened and the ascending aorta identified and dissected free of surrounding tissue. A ligature was knit around the ascending aorta and a metal probe with diameter 0.9 mm. The metal probe was then removed. The result was a constriction of the ascending aorta with internal diameter about 0.9 mm. The thorax was then closed with 3-0 silk sutures and the skin closed with Dexon 1 sutures. […]
Papillary muscle was extracted from a CHF rat 6 weeks after aortic banding as described above. osterior left ventricular papillary muscle was prepared, mounted in organ bath, equilibrated and field stimulated at 1 Hz (Sjaastad et al. 2003 supra), and the contraction-relaxation cycles (CRCs) were recorded and analysed as previously described (Skomedal et al. 1997, J. Pharmacol Exp Ther 280: 721-729) (Sjaastad et al., 2003, supra) with respect to maximal developed force (Fmax), maximal development of force (dF/dt)max, time to peak force (TPF), time to relaxation to 20% level (TR20) and relaxation time (RT=TR20-TPF).

[7] = system: papillary muscles from MInf rats; assay: Inotropic response to serotonin in papillary muscles from MInf rats (infarction without CHF); type: cell-based, rat; conditions: serotonin 10 μM
Source text: The magnitude of the response correlated positively with infarction size up to 30-40% of the inner myocardial surface in MInf animals (FIG. 8A). In MInf hearts with infarct size 30-40% the inotropic effect was of the same magnitude as in CHF hearts which all had infarct size >40%. A positive correlation with infarction size was also observed for 5-HT4(b) and ANP mRNA expression, whereas 5-HT2A mRNA levels were unchanged (FIG. 8B).

Structure (SMILES): CN1[C@@H]2CC[C@H]1CC(OC(=O)C(CO)c1ccccc1)C2.CN1[C@@H]2CC[C@H]1CC(OC(=O)C(CO)c1ccccc1)C2.O=S(=O)(O)O (stereo partly shown) [Atropine, atropine sulfate]
inotropic response to serotonin restored by atropine ([1]; 1 μmol/l atropine after serotonin and carbachol, p>0.06 vs serotonin alone): 45.1±5.1% | effect on serotonin-induced changes of TPF, TR2O and RT (contraction-relaxation cycle characteristics) ([1]; cumulative 10 μmol/l serotonin, 30 μmol/l carbachol, 1 μmol/l atropine): re-established the contraction-relaxation cycle characteristics

Structure (SMILES): C[N+](C)(C)CCOC(N)=O [Carbachol, carbamylcholine]
inotropic response to serotonin after carbachol (reversal) ([1]; 30 μmol/l carbachol added after 10 μmol/l serotonin, p<0.01): 4.8±6.5%

shift of the concentration-response curve for serotonin [2]: did not shift
Structure (SMILES): O=C(c1ccc(F)cc1)C1CCN(CCn2c(=O)[nH]c3ccccc3c2=O)CC1 [Ketanserin, 3-[2-[4-(4-fluorobenzoyl)-1-piperidinyl]ethyl]-2,4(1H,3H)-quinazolinedione]

Kb (5-HT4 receptor [3]; 6 week post MI rats, 5 nM antagonist, read-out: pKb (converted)): 0.631 nM
Structure (SMILES): COc1cc(COc2cc(N)c(Cl)cc2C(=O)CCC2CCN(CCNS(C)(=O)=O)CC2)cc(OC)c1 [RS39604, 1-[4-amino-5-chloro-2-(3,5-dimethoxybenzyloxy)phenyl]-3 [1-[2-[(methylsulf-onyl)amino]ethyl]-4-piperidinyl]-1-propanone hydrochloride]
block of the inotropic response to serotonin (5-HT4 receptor [3]; 6 week post MI rats): block the inotropic response to serotonin

pKb (5-HT4 receptor [3]; 6 week post MI rats, 5 nM antagonist): 9.1
Structure (SMILES): O=C(OCCN1CCCCC1)c1c[nH]c2ccccc12 [SB203186, 1-piperidinyl-ethyl-1H-indole-3-carboxylate]
block of the inotropic response to serotonin (5-HT4 receptor [3]; 6 week post MI rats): block the inotropic response to serotonin

Structure (SMILES): CCCCN1CCC(CNC(=O)c2c3n(c4ccccc24)CCCO3)CC1 [SB207266, N-[(1-butyl-4-piperidinyl)methyl]-3,4-dihydro-2H-[1,3]oxazino[3,2-a]indole-locarboxamide hydrochloride]
maximal inotropic response to β-adrenoceptor stimulation (myocardial function) ([4]; vs placebo): trend towards normalisation | duration of the contraction-relaxation cycle ([4]; preliminary data, not shown): trend towards normalisation

Structure (SMILES): CC(C)NC[C@H](O)c1ccc(O)c(O)c1 [isoprenaline, (−)-isoprenaline hemisulphate]
inotropic effect (increase in contractile force) ([1]; 10 μmol/l isoprenaline as printed, SEM, n=10): 60.4±5.8% and 58.5±7% | RT (TR20−TPF), relaxation time ([1]; n=10, listed as ISO): 81.0 ± 1.8 ms | TPF (time to peak force) ([1]; n=10, listed as ISO): 123.1 ± 1.6 ms | TR20 (time to relaxation to 20% level) ([1]; n=10, listed as ISO): 204.1 ± 2.9 ms | RT (TR20−TPF), relaxation time ([1]; n=10, listed as Iso): 76.2 ± 1.8 % of control | TPF (time to peak force) ([1]; n=10, listed as Iso): 83.2 ± 1.7 % of control | TR20 (time to relaxation to 20% level) ([1]; n=10, listed as Iso): 80.3 ± 1.9 % of control | RT (TR20−TPF), relaxation time ([5]; listed as ISO): 75.0 ± 2.5 ms | TPF (time to peak force) ([5]; listed as ISO): 109.3 ± 2.7 ms | TR20 (time to relaxation to 20% level) ([5]; listed as ISO): 174.0 ± 4.9 ms | RT (TR20−TPF), relaxation time ([5]; listed as Iso): 69.4 ± 3.2 % of control | TPF (time to peak force) ([5]; listed as Iso): 87.4 ± 2.3 % of control | TR20 (time to relaxation to 20% level) ([5]; listed as Iso): 74.5 ± 1.7 % of control | positive inotropic response ([5]; isoprenaline, sham-operated animals, mean±SEM, n=6): 111.6±8.6%

Structure (SMILES): Cl.NCCc1c[nH]c2ccc(O)cc12 [serotonin, 5-hydroxytryptamine hydrochloride]
inotropic response to serotonin (5-HT4 receptor [6]): positive inotropic response comparable in magnitude and characteristics to the positive inotropic response to 100 μM isoproterenol | increase in contractile force ([1]; 10 μmol/l serotonin, SEM, n=10): 44.5±2.9% | positive inotropic response above control level ([1]; 10 μmol/l serotonin, carbachol experiment, mean±SEM, n=5): 33.7±6.6% | time from addition of serotonin to maximal inotropic response ([1]; 10 μmol/l serotonin, prazosin, atropine and timolol present): 1 to 2 min | inotropic response to serotonin [7]: elicited an inotropic response qualitatively similar to the response observed in CHF animals | positive inotropic response to serotonin ([5]; 10 μmol/l serotonin, sham-operated animals, n=6): not seen in sham-operated animals | maximum inotropic response induced by serotonin (5-HT4 receptor [3]; pooled average with and without GR113808, SEM, n=12): 18.7±2.4%
